# Measured values from article PMC2818328 (Bioorganic & medicinal chemistry letters, 2009).
# How the values were obtained:
# GCPII = GCPII (Homo sapiens, UniProt Q04609); assay: fluorescence-based NAALADase assay, in vitro GCPII inhibitory activity; conditions: relative to 32a
# cloned human GCPII = conditions: cited from earlier work
# [1] = system: inflammatory and neuropathic pain models; conditions: cited from earlier work
# Sequence of GCPII (Q04609 whole entry): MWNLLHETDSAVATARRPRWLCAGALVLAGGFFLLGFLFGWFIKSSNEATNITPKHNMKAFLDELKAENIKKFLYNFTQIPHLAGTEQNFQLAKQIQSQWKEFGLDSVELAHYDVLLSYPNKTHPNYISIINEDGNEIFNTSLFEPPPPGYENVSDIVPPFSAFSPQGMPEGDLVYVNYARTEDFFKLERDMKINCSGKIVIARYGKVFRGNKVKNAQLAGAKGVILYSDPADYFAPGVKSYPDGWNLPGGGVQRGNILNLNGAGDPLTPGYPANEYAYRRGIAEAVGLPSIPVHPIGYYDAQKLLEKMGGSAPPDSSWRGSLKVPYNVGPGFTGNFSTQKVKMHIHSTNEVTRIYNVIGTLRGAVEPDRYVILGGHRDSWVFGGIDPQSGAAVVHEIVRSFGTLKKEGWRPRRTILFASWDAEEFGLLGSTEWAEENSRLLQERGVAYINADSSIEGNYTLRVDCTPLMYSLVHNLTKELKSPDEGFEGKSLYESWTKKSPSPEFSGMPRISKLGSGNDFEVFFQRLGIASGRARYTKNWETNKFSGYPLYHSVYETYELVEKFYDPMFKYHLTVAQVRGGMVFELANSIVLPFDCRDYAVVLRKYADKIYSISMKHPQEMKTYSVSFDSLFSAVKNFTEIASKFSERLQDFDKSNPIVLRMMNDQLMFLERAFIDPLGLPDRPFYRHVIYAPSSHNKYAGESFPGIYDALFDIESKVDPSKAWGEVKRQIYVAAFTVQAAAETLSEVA
fold stronger binding affinity for GCPII compared to 32a (GCPII),SMILES,Ki (cloned human GCPII),penetration of the blood-brain barrier [1],analgesic activity ([1]; high doses (50–100 mg/kg) needed)
4 fold,O=C(N[C@@H](CCCCNC(=O)c1ccc(I)cc1)C(=O)O)NC1(C(=O)O)CC1 [32c],,,
,"CC(C)C[C@H](NC(=O)N[C@@H](CCC(=O)O)C(=O)O)C(=O)O [ZJ-43, (S)-2-(3-((S)-1-carboxy-3-methylbutyl)ureido)pentanedioic acid]",0.8 nM,low penetration,demonstrated analgesic activity
120 fold,C=CC[C@H](NC(=O)N[C@@H](CCCCNC(=O)c1ccc(I)cc1)C(=O)O)C(=O)O [32d],,,
